Source: patent publication US20240252488A1 (KOREA RESEARCH INSTITUTE OF CHEMICAL TECHNOLOGY, priority 2020, published 2024)

Key:
[1] = tested on: FADD−/− Jurkat cells; assay: Necroptosis inhibition assay, TNF-α-induced necroptosis (CellTiter-Glo 2.0); assay type: cell-based, human; conditions: TNF-α 15 ng/mL; for Necroptosis inhibition assay (Rescue %) 1 μM: compound 1 μM; for Necroptosis inhibition assay (Rescue %) 10 μM: compound 10 μM
Method in brief: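 Luminescent ATP measurement gave viability, from which cytotoxicity and necroptosis inhibition rate were derived. Before that, cells (5.0×10^5 cells/mL) saw compound at 0.1, 1 or 10 μM final for 30 minutes at room temperature, then TNF-α (15 ng/mL final) for 20 to 24 hours at 37° C.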

[2] = molecular target: T1, MLKL (Homo sapiens, UniProt Q8NB16); assay: MLKL degradation assay in HepG2 cell line (western blot); assay type: cell-based; set-up: endogenous in cells; host or cells: HepG2 or HaCaT; conditions: cell line not given; for Degradation assay (Degradation %) 1 μM: compound 1 μM; for Degradation assay (Degradation %) 10 μM: compound 10 μM
T1 sequence (Q8NB16 1-471): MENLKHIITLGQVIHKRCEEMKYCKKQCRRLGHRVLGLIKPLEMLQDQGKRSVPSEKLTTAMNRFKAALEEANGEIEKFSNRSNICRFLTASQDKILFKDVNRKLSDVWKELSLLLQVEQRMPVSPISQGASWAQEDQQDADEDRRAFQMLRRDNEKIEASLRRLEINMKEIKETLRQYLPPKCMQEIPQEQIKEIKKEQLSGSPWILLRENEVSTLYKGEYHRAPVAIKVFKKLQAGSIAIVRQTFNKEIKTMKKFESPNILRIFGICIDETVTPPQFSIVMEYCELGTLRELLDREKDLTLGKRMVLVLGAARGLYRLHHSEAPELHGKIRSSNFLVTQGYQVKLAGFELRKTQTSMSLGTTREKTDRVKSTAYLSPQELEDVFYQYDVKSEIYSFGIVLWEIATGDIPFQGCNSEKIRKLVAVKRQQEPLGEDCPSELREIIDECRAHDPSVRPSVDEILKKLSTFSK
Method in brief: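 Cells seeded, next day medium swapped for compound-containing medium (final 1 or 10 μM) and incubated 20-24 h at 37 °C. Lysates in RIPA with protease/phosphatase inhibitors were protein-matched by BCA, run on SDS-PAGE and immunoblotted for MLKL.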

[3] = molecular target: T1, MLKL; assay: Measurement of binding affinity with MLKL receptor (competitive binding assay, Kd); set-up: made in house; host or cells: HEK 293 cell line (T7 phage in E. coli BL21-derived host is also described)
Method in brief: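 Kd from an immobilized-ligand competition format: the DNA-tagged kinase from HEK 293 expression is eluted and quantified by qPCR. Compounds added from 111× DMSO stocks, final DMSO 0.9%.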

Degradation assay (Degradation %) 1 μM [2] [%]	Degradation assay (Degradation %) 10 μM [2] [%]	Kd [3] [nM]	SMILES	Necroptosis inhibition assay (Rescue %) 1 μM ([1]; FADD−/− Jurkat cells) [%]	Necroptosis inhibition assay (Rescue %) 10 μM ([1]; FADD−/− Jurkat cells) [%]	Necroptosis inhibition assay (Rescue %) 1 μM [1] [%]	Necroptosis inhibition assay (Rescue %) 10 μM [1] [%]
81.08	91.73	0.24	COc1ccc(C(=O)N2CCC(C(=O)N3CCC(CN4CCC(CCN5CCC(n6cc(-c7cnc(N)c(C(=O)O[C@@H](C(=O)Nc8ccc(F)cc8)c8ccccc8)n7)cn6)CC5)CC4)CC3)CC2)cc1N1CCC(=O)NC1=O [TDH-511, (R)-2-((4-fluorophenyl)amino)-2-oxo-1-phenylethyl 3-amino-6-(1-(1-(2-(1-((1-(1-(3-(2,4-dioxotetrahydropyrimidin-1(2H)-yl)-4-methoxybenzoyl)piperidine-4-carbonyl)piperidin-4-yl)methyl)piperidin-4-yl)ethyl)piperidin-4-yl)-1H-pyrazol-4-yl)pyrazine-2-carboxylate]	32.32	46.16	–	–
57.69	44.41	0.96	Nc1ncc(-c2cnn(C3CCN(CCCN4CCN(C(=O)c5ccc(C(=O)NC6CCC(=O)NC6=O)cc5)CC4)CC3)c2)nc1C(=O)O[C@@H](C(=O)Nc1ccc(F)cc1)c1ccccc1 (stereo partly drawn) [TDH-535, (R)-2-((4-fluorophenyl)amino)-2-oxo-1-phenylethyl 3-amino-6-(1-(1-(3-(4-(4-((2,6-dioxopiperidin-3-yl)carbamoyl)benzoyl)piperazin-1-yl)propyl)piperidin-4-yl)-1H-pyrazol-4-yl)pyrazine-2-carboxylate]	20.08	23.78	–	–
86.34	84.54	2.5	Nc1ncc(-c2cnn(C3CCN(CCCC4CCN(C(=O)CNc5ccc6c(c5)C(=O)N(C5CCC(=O)NC5=O)C6=O)CC4)CC3)c2)nc1C(=O)O[C@@H](C(=O)Nc1ccc(F)cc1)c1ccccc1 (stereo partly drawn) [TDH-483, (R)-2-((4-fluorophenyl)amino)-2-oxo-1-phenylethyl 3-amino-6-(1-(1-(3-(1-((2-(2,6-dioxopiperidin-3-yl)-1,3-dioxoisoindolin-5-yl)glycyl)piperidin-4-yl)propyl)piperidin-4-yl)-1H-pyrazol-4-yl)pyrazine-2-carboxylate]	62.95	37.9	–	–
78.62	75.61	3.6	Nc1ncc(-c2cnn(C3CCN(C(=O)C4CCN(C(=O)CNc5ccc6c(c5)C(=O)N(C5CCC(=O)NC5=O)C6=O)CC4)CC3)c2)nc1C(=O)OC(C(=O)Nc1ccc(F)cc1)c1ccccc1 (centres unmarked) [TDH-276, 2-((4-fluorophenyl)amino)-2-oxo-1-phenylethyl 3-amino-6-(1-(1-(1-((2-(2,6-dioxopiperidin-3-yl)-1,3-dioxoisoindolin-5-yl)glycyl)piperidine-4-carbonyl)piperidin-4-yl)-1H-pyrazol-4-yl)pyrazine-2-carboxylate]	–	–	75.36	70.49
71.41	57.83	0.92	Nc1ncc(-c2cnn(C3CCN(C(=O)C4CCN(C(=O)CNc5cccc6nnn(C7CCC(=O)NC7=O)c(=O)c56)CC4)CC3)c2)nc1C(=O)O[C@@H](C(=O)Nc1ccc(F)cc1)c1ccccc1 (stereo partly drawn) [TDH-413, (R)-2-((4-fluorophenyl)amino)-2-oxo-1-phenylethyl 3-amino-6-(1-(1-(1-((3-(2,6-dioxopiperidin-3-yl)-4-oxo-3,4-dihydrobenzo[d][1,2,3]triazin-5-yl)glycyl)piperidine-4-carbonyl)piperidin-4-yl)-1H-pyrazol-4-yl)pyrazine-2-carboxylate]	24.79	18.59	–	–

More lines, now with the values behind:

SMILES	Degradation assay (Degradation %) 1 μM [2] [%]	Degradation assay (Degradation %) 10 μM [2] [%]	Kd [3] [nM]	Necroptosis inhibition assay (Rescue %) 1 μM ([1]; FADD−/− Jurkat cells) [%]	Necroptosis inhibition assay (Rescue %) 10 μM ([1]; FADD−/− Jurkat cells) [%]	Necroptosis inhibition assay (Rescue %) 1 μM [1] [%]	Necroptosis inhibition assay (Rescue %) 10 μM [1] [%]
Nc1ncc(-c2cnn(C3CCN(C(=O)CCC4CCN(C(=O)CC5CCN(c6ccc7c(c6)C(=O)N(C6CCC(=O)NC6=O)C7=O)CC5)CC4)CC3)c2)nc1C(=O)O[C@@H](C(=O)Nc1ccc(F)cc1)c1ccccc1 (stereo partly drawn) [TDH-430, (R)-2-((4-fluorophenyl)amino)-2-oxo-1-phenylethyl 3-amino-6-(1-(1-(3-(1-(2-(1-(2-(2,6-dioxopiperidin-3-yl)-1,3-dioxoisoindolin-5-yl)piperidin-4-yl)acetyl)piperidin-4-yl)propanoyl)piperidin-4-yl)-1H-pyrazol-4-yl)pyrazine-2-carboxylate]	65.96	36.66	2.2	15.88	14.13	–	–
Nc1ncc(-c2cnn([C@@H]3CCN(CC4CCN(C(=O)CNc5cccc6c5C(=O)N(C5CCC(=O)NC5=O)C6=O)CC4)C3)c2)nc1C(=O)OC(C(=O)Nc1ccc(F)cc1)c1ccccc1 (stereo partly drawn) [TDH-285, 2-((4-fluorophenyl)amino)-2-oxo-1-phenylethyl 3-amino-6-(1-((3R)-1-((1-((2-(2,6-dioxopiperidin-3-yl)-1,3-dioxoisoindolin-4-yl)glycyl)piperidin-4-yl)methyl)pyrrolidin-3-yl)-1H-pyrazol-4-yl)pyrazine-2-carboxylate]	56.55	50.66	13	–	–	36.72	40.43
Nc1ncc(-c2cnn(C3CCN(C(=O)CCC4CCN(C(=O)CCc5cccc6c5C(=O)N(C5CCC(=O)NC5=O)C6=O)CC4)CC3)c2)nc1C(=O)O[C@@H](C(=O)Nc1ccc(F)cc1)c1ccccc1 (stereo partly drawn) [TDH-431, (R)-2-((4-fluorophenyl)amino)-2-oxo-1-phenylethyl 3-amino-6-(1-(1-(3-(1-(3-(2-(2,6-dioxopiperidin-3-yl)-1,3-dioxoisoindolin-4-yl)propanoyl)piperidin-4-yl)propanoyl)piperidin-4-yl)-1H-pyrazol-4-yl)pyrazine-2-carboxylate]	86.88	76.78	1	37.24	17.64	–	–
Nc1ncc(-c2cnn(C3CCN(CC4CCN(CC5CCN(C(=O)COc6ccc7c(c6)C(=O)N(C6CCC(=O)NC6=O)C7=O)CC5)CC4)CC3)c2)nc1C(=O)O[C@@H](C(=O)Nc1ccc(F)cc1)c1ccccc1 (stereo partly drawn) [TDH-425, (R)-2-((4-fluorophenyl)amino)-2-oxo-1-phenylethyl 3-amino-6-(1-(1-((1-((1-(2-((2-(2,6-dioxopiperidin-3-yl)-1,3-dioxoisoindolin-5-yl)oxy)acetyl)piperidin-4-yl)methyl)piperidin-4-yl)methyl)piperidin-4-yl)-1H-pyrazol-4-yl)pyrazine-2-carboxylate]	50.12	88.68	0.34	67.90	–	–	–
